This is an account of results in patent US20240409536A1, “COMPOUNDS AND METHODS FOR MODULATING SPLICING” (REMIX THERAPEUTICS INC., priority 2021, published 2024).

Data set [1] deals with MYB mRNA. Description: Gene panel canonical junction qPCR assay, MYB CJ mRNA decrease. The data set is classed as cell-based, human. The conditions noted are these: Homo sapiens, canonical junction qPCR, read-out: MYB IC50 (decrease in CJ mRNA levels). The essentials: (§1)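 A673 or K562 cells were treated with compound, and lysates underwent cDNA synthesis and qPCR with a CY5 5′-nuclease probe or primer spanning the canonical exon junction. ΔCt versus GAPDH, GUSB or PPIA was normalized to DMSO (2^(−ΔΔCt)), converted to percentage response and fitted four-parameter logistic for IC50.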
Background: Quantitative PCR measures a nucleic acid by following its amplification.

In data set [2] the test system is SMN2 mRNA. Description: Gene panel canonical junction qPCR assay, SMN2 CJ mRNA decrease. The data set is classed as cell-based, human. The conditions noted are these: Homo sapiens, canonical junction qPCR, read-out: SMN2 IC50 (decrease in CJ mRNA levels). The essentials:
as §1

Data set [3] relates to HiBiT-tagged MYB protein. Description: HiBiT protein abundance assay, MYB (K562 HiBiT knock-in cells). The data set is classed as cell-based, human. The conditions noted are these: 24 hours. The procedure, abridged:
(§2)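 Luminescent readout of HiBiT-tagged endogenous protein after lysis, following 24 h compound exposure of knock-in K562 lines at 37 °C. Ten 3-fold concentrations from 10 μM final, DMSO ≤0.25%. Four-parameter logistic fit of normalized response gives concentration halving abundance (IC50).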
A general note: With HiBiT, luminescence reflects the tagged protein that the partner subunit can reach.

Data set [4] has as its system HiBiT-tagged HTT protein. Description: HiBiT protein abundance assay, HTT (K562 HiBiT knock-in cells). The conditions noted are these: 24 hours. The data set is classed as cell-based, human. The essentials:
as §2

Data set [5] relates to Target C. Description: HiBiT protein abundance assay, Target C (K562 HiBiT knock-in cells). Particulars: 24 hours. The data set is classed as cell-based, human. The procedure, abridged:
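Protein abundance read by HiBiT lytic luminescence after 24 h compound exposure (37 °C) of knock-in K562 cells, 10000 cells/well in IMDM+1% FBS. Dosing: 10 points, 3-fold, top 10 μM final, ≤0.25% DMSO. Four-parameter logistic fit gave concentration reducing abundance to 50% of untreated control.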

Data set [6] has as its system K562 cells. Description: Cell Titer Glo 2.0 cell viability assay in K562 cells. Particulars: 72 hours.

`CNC1CCN(c2ccc(C(=O)Nc3cc(F)c4nc(C)cn4c3)c3ncc(OC)nc23)C1` (stereo in doubt) [Compound 227, (R)—N-(8-fluoro-2-methylimidazo[1,2-a]pyridin-6-yl)-2-methoxy-8-(3-(methylamino)pyrrolidin-1-yl)quinoxaline-5-carboxamide 2,2,2-trifluoroacetate]: the IC50 (in general, the concentration that gives 50% inhibition) in data set [1] was 1000 to 10000 nM; in data set [2] it was less than 100 nM; in data set [3], 100 to 1000 nM; in data set [4], 1000 to 10000 nM; in data set [5] it was 100 to 1000 nM. The Viability result in data set [6] is reported as “A (A represents <100 nM)”.
For `Cc1cn2cc(NC(=O)c3ccc(N4CCC(NC(C)(C)C)C4)c4ccnnc34)cc(F)c2n1` (stereo not shown) [Compound 109], the IC50 in data set [1] was 1000 to 10000 nM; in data set [2], 100 to 1000 nM; in data set [3], 1000 to 10000 nM; in data set [4], 1000 to 10000 nM; in data set [5] it was 1000 to 10000 nM.
For the compound `Cc1cnc2c(C(=O)Nc3cc(F)c4nc(C)cn4c3)ccc(N3C[C@@H](C)N[C@@H](C)C3)c2n1` [Compound 217, 8-((3R,5S)-3,5-dimethylpiperazin-1-yl)-N-{8-fluoro-2-methylimidazo[1,2-a]pyridin-6-yl}-2-methylquinoxaline-5-carboxamide], the IC50 in data set [1] was less than 100 nM; in data set [2], less than 100 nM; in data set [3], less than 100 nM; in data set [4] it was 100 to 1000 nM; in data set [5] it was 100 to 1000 nM. Also, the Viability entry in data set [6] is on record as “B (B represents 100-1000 nM)”.
On to `CCNC1CCN(c2ccc(C(=O)Nc3cc(F)c4nc(C)cn4c3)c3nc(C)ccc23)CC1` [Compound 228, 5-[4-(ethylamino)piperidin-1-yl]-N-{8-fluoro-2-methylimidazo[1,2-a]pyridin-6-yl}-2-methylquinoline-8-carboxamide], for which the IC50 in data set [1] was less than 100 nM; in data set [2], less than 100 nM; in data set [3] it was less than 100 nM; in data set [4], 100 to 1000 nM; in data set [5], 100 to 1000 nM. The Viability entry in data set [6] is given as “A (A represents <100 nM)”.
`COCCOc1ccc2c(N3CCC(N(C)C)CC3)ccc(C(=O)Nc3cc(F)c4nc(C)cn4c3)c2n1` [Compound 229, 5-[4-(dimethylamino)piperidin-1-yl]-N-{8-fluoro-2-methylimidazo[1,2-a]pyridin-6-yl}-2-(2-methoxyethoxy)quinoline-8-carboxamide]: the IC50 in data set [1] is 100 to 1000 nM; in data set [2], less than 100 nM; in data set [3], less than 100 nM; in data set [4] it was greater than 10000 nM; in data set [5], greater than 10000 nM. The Viability result in data set [6] is “A (A represents <100 nM)”.
On to `Cc1cn2cc(NCc3ccc(N4CCNCC4)c4ccnnc34)cc(F)c2n1` [Compound 230, 8-fluoro-2-methyl-N-{[5-(piperazin-1-yl)cinnolin-8-yl]methyl}imidazo[1,2-a]pyridin-6-amine], for which the IC50 in data set [1], in data set [2], in data set [3], in data set [4] and in data set [5] was greater than 10000 nM throughout. Further, in data set [6], the Viability result is given as “D (D represents greater than 10 μM in K562 cells)”.
With `CNC1CCN(c2ccc(C(=O)Nc3cc(F)c4nc(C)cn4c3)c3nnccc23)C1` (stereo not shown) [Compound 231, N-{8-fluoro-2-methylimidazo[1,2-a]pyridin-6-yl}-5-[3-(methylamino)pyrrolidin-1-yl] cinnoline-8-carboxamide], the IC50 is less than 100 nM in data set [1]; less than 100 nM in data set [2]; less than 100 nM in data set [3]; 1000 to 10000 nM in data set [4]; 1000 to 10000 nM in data set [5]. Also, the Viability entry in data set [6] is “B (B represents 100-1000 nM)”.
Turning to `COCCOc1ccc2c(N3C[C@@H](C)N[C@@H](C)C3)ccc(C(=O)Nc3cc(F)c4nc(C)cn4c3)c2n1` [Compound 232, 5-[(3R,5S)-3,5-dimethylpiperazin-1-yl]-N-{8-fluoro-2-methylimidazo[1,2-a]pyridin-6-yl}-2-(2-methoxyethoxy)quinoline-8-carboxamide], the IC50 in data set [1] was 100 to 1000 nM; in data set [2], less than 100 nM; in data set [3], less than 100 nM; in data set [4], 1000 to 10000 nM; in data set [5], 1000 to 10000 nM.
As to `CCNC1CCN(c2ccc(C(=O)Nc3cc(F)c4nc(C)cn4c3)c3nc(OCCOC)ccc23)CC1` [Compound 233, 5-[4-(ethylamino)piperidin-1-yl]-N-{8-fluoro-2-methylimidazo[1,2-a]pyridin-6-yl}-2-(2-methoxyethoxy)quinoline-8-carboxamide], the IC50 in data set [1] was 100 to 1000 nM; in data set [2], less than 100 nM; in data set [3] it was less than 100 nM; in data set [4], 1000 to 10000 nM; in data set [5], 1000 to 10000 nM. In addition, in data set [6], the Viability entry was “A (A represents <100 nM)”.
